The compounds below were run against T1, ER (Homo sapiens, UniProt P03372) (assay: ER degradation activity, in-cell western blot analysis in T47D cells). Settings: compounds 16 hours, Table A does not say whether T47D or MCF7, read-out: Potency (DC50).
T1 construct: host or cells: T47D and MCF7 human breast cancer cells
T1 sequence (P03372 1-595): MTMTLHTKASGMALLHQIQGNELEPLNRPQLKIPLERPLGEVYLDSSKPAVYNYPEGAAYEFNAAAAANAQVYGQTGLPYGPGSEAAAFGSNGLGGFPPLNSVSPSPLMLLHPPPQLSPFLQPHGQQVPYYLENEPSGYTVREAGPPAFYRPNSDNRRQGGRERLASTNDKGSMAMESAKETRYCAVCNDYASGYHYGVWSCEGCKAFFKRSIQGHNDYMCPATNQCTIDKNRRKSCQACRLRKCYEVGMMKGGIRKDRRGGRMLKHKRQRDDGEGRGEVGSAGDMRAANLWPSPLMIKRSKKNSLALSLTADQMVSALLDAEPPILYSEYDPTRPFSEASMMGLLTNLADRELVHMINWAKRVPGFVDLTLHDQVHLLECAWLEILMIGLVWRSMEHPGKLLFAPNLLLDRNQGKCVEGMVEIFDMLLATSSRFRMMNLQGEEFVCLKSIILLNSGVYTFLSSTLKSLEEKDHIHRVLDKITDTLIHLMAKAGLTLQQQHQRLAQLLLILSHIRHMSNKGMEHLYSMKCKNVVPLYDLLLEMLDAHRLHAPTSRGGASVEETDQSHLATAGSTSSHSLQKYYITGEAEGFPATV
Format: cell-based
How it was run: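 T47D cells grown in DMEM with 10% FBS were treated with compounds for 16 hours at 0.5% DMSO final. ER was detected by in-cell western using 680/800 near-infrared secondary antibodies. Residual ER is given as percent of untreated and DMSO-treated wells set to 100%.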

With `C[C@@H]1Cc2c([nH]c3ccccc23)[C@@H](c2cnc(N3CCC4(CC3)CC(CN3Cc5cc6c(cc5C3)C(=O)N(C3CCC(=O)NC3=O)C6=O)C4)nc2)N1CC(C)(C)F` (stereo partly drawn) [E 473, 2-(2,6-dioxopiperidin-3-yl)-6-((7-(5-((1R,3R)-2-(2-fluoro-2-methylpropyl)-3-methyl-2,3,4,9-tetrahydro-1H-pyrido[3,4-b]indol-1-yl)pyrimidin-2-yl)-7-azaspiro[3.5]nonan-2-yl)methyl)-6,7-dihydropyrrolo[3,4-f]isoindole-1,3(2H,5H)-dione] as the compound, how does the DC50 read?
Its DC50 is 10 to 100 nM.

With `C[C@@H]1Cc2c([nH]c3ccccc23)[C@@H](c2cnc(N3CCC4(CC3)CC(CN3Cc5cc6c(cc5C3)C(=O)N(C3CCC(=O)NC3=O)C6=O)C4)nc2)N1CC(F)F` (stereo partly drawn) [E 474, 6-((7-(5-((1R,3R)-2-(2,2-difluoroethyl)-3-methyl-2,3,4,9-tetrahydro-1H-pyrido[3,4-b]indol-1-yl)pyrimidin-2-yl)-7-azaspiro[3.5]nonan-2-yl)methyl)-2-(2,6-dioxopiperidin-3-yl)-6,7-dihydropyrrolo[3,4-f]isoindole-1,3(2H,5H)-dione] as the compound, how does the DC50 read?
Its DC50 is 10 to 100 nM.

`C[C@@H]1Cc2c([nH]c3ccccc23)[C@@H](c2ccc(C3CCC(C(=O)N4CCC(N5Cc6cc7c(cc6C5)C(=O)N(C5CCC(=O)NC5=O)C7=O)CC4)CC3)c(F)c2)N1CC(F)F` (stereo partly drawn) [E 475, 6-(1-(4-(4-((1R,3R)-2-(2,2-difluoroethyl)-3-methyl-2,3,4,9-tetrahydro-1H-pyrido[3,4-b]indol-1-yl)-2-fluorophenyl)cyclohexane-1-carbonyl)piperidin-4-yl)-2-(2,6-dioxopiperidin-3-yl)-6,7-dihydropyrrolo[3,4-f]isoindole-1,3(2H,5H)-dione] was tested. Which DC50 did it give?
Its DC50 is 10 to 100 nM.

`C[C@@H]1Cc2c([nH]c3ccccc23)[C@@H](c2c(F)cc(C3=CCC4(CC3)CCN(C(=O)CN3Cc5cc6c(cc5C3)C(=O)N(C3CCC(=O)NC3=O)C6=O)CC4)cc2F)N1CC(F)F` (stereo partly drawn) [E 476, 6-(2-(9-(4-((1R,3R)-2-(2,2-difluoroethyl)-3-methyl-2,3,4,9-tetrahydro-1H-pyrido[3,4-b]indol-1-yl)-3,5-difluorophenyl)-3-azaspiro[5.5]undec-8-en-3-yl)-2-oxoethyl)-2-(2,6-dioxopiperidin-3-yl)-6,7-dihydropyrrolo[3,4-f]isoindole-1,3(2H,5H)-dione] was tested. Which DC50 did it give?
The DC50 was 10 to 100 nM.

For `C[C@@H]1Cc2c([nH]c3ccccc23)[C@@H](c2ccc(C3=CCC4(CC3)CCN(C(=O)CN3Cc5cc6c(cc5C3)C(=O)N(C3CCC(=O)NC3=O)C6=O)CC4)cc2F)N1CC(F)F` (stereo partly drawn) [E 477, 6-(2-(9-(4-((1R,3R)-2-(2,2-difluoroethyl)-3-methyl-2,3,4,9-tetrahydro-1H-pyrido[3,4-b]indol-1-yl)-3-fluorophenyl)-3-azaspiro[5.5]undec-8-en-3-yl)-2-oxoethyl)-2-(2,6-dioxopiperidin-3-yl)-6,7-dihydropyrrolo[3,4-f]isoindole-1,3(2H,5H)-dione], which DC50 is on record?
The DC50 was > 100 nM.

Which DC50 does the source give for `C[C@@H]1Cc2c([nH]c3ccccc23)[C@@H](c2ccc(C3=CCC4(CC3)CCN(C(=O)CN3Cc5cc6c(cc5C3)C(=O)N(C3CCC(=O)NC3=O)C6=O)CC4)cc2)N1CC(F)F` (stereo partly drawn) [E 478, 6-(2-(9-(4-((1R,3R)-2-(2,2-difluoroethyl)-3-methyl-2,3,4,9-tetrahydro-1H-pyrido[3,4-b]indol-1-yl)phenyl)-3-azaspiro[5.5]undec-8-en-3-yl)-2-oxoethyl)-2-(2,6-dioxopiperidin-3-yl)-6,7-dihydropyrrolo[3,4-f]isoindole-1,3(2H,5H)-dione] here?
The DC50 was > 100 nM.

With `C[C@@H]1Cc2c([nH]c3ccccc23)[C@@H](c2ccc(C3CCC4(CC3)CCN(C(=O)CN3Cc5cc6c(cc5C3)C(=O)N(C3CCC(=O)NC3=O)C6=O)CC4)cc2F)N1CC(F)F` (stereo partly drawn) [E 479, 6-(2-(9-(4-((1R,3R)-2-(2,2-difluoroethyl)-3-methyl-2,3,4,9-tetrahydro-1H-pyrido[3,4-b]indol-1-yl)-3-fluorophenyl)-3-azaspiro[5.5]undecan-3-yl)-2-oxoethyl)-2-(2,6-dioxopiperidin-3-yl)-6,7-dihydropyrrolo[3,4-f]isoindole-1,3(2H,5H)-dione] as the compound, how does the DC50 read?
The DC50 was > 100 nM.
